Values quoted from earlier work, collected in patent publication US7858126B2 (Trinity Laboratories Inc., priority 2006, dated 2010).

Columns and labels:
skin papillomas = details: mice, DMBA-initiated, TPA-promoted
[1] = tested on: ornithine decarboxylase (ODC); details: mice

santalol
decrease of papilloma incidence (skin papillomas): 67%
decrease of papilloma multiplicity (skin papillomas): 96%
decrease of TPA-induced ODC activity [1]: 70%
